Assays:
[1] = system: sorbitol accumulation in the sciatic nerve of streptozotocinized (i.e., diabetic) rats; assay: inhibition of sorbitol accumulation in the sciatic nerve of streptozotocinized (diabetic) rats; assay type: in vivo; conditions: 25 mg/kg oral at 4, 8 and 24 hours after streptozotocin; sorbitol measured 27 hours after induction of diabetes; compared to untreated animals
Experimental: (§1) The activity of the compounds of the present invention as agents for the control of chronic diabetic complications may be determined by a number of standard biological or pharmacological tests. Suitable tests include (1) measuring their ability to inhibit the enzyme activity of isolated aldose reductase and (2) measuring their ability to reduce or inhibit sorbitol accumulation in the sciatic nerve of acutely streptozotocinized (i.e., diabetic) rats.
The compounds of Examples 1 and 2 were tested for their ability to reduce or inhibit sorbitol accumulation in the sciatic nerve of streptozotocinized (i.e., diabetic) rats by the procedure essentially described in U.S. Pat. No. 3,821,383. In the present study, the amount of sorbitol accumulation in the sciatic nerves was measured 27 hours after induction of diabetes. The compounds were administered orally at the dose levels indicated at 4, 8 and 24 hours following the administration of streptozotocin. The results obtained in this manner are presented as the percent inhibition (%) obtained at a 25 mg/kg dose compared to the untreated animal standard (i.e., the untreated animal where sorbitol levels normally rise from approximately 50-100 mM/g. tissue to as high as 400 mM/g. tissue in the 27-hour test period): […]

[2] = biological target: T1, aldose reductase (Bos taurus, UniProt P16116); assay: inhibition of aldose reductase enzyme activity (partially purified enzyme from calf lens); assay type: biochemical; conditions: read-out: 50% Inhibitory Concentration
T1 construct: partially purified aldose reductase enzyme obtained from calf lens; from tissue; host or cells: calf lens
Description: as §1, with “rats. […] Pat. No. 3,821,383 and based on the procedure on Hayman et. al., Journal of Biological Chemistry, 240, 877 (1965). The substrate employed was partially purified aldose reductase enzyme obtained from calf lens.” for “rats.”

IC50 [2] [µM] | Compound | Percent Inhibition at 25 mg/kg [1] [%]
100 | O=C1NC(=O)C2(CCCc3occc32)N1 (stereo not shown) [Example 1, Spiro[cyclohexa(b)furan-4,4'-imidazolidine]-2',5'-dione] | 46
100 | Cc1cc2c(o1)CCCC21NC(=O)NC1=O (stereo not shown) [Example 2, 2-methyl-spiro[cyclohexa(b)furan-4,4'-imidazolidine]-2',5'-dione] | 2

Reference: patent US4147797A, “Spiro-furanohydantoin derivatives” (Pfizer Inc., priority 1978, dated 1979)
